Values quoted from earlier work, collected in patent US12653814B2, “Benzimidazolone-based cinnamamide derivative as TRPV1 antagonist and pharmaceutical composition for treatment or prevention of pain containing same as active ingredient” (JMACKEM CO., LTD, priority 2020, dated 2026).

Legend:
[1] = during clinical trials; cited from earlier work
[2] = even in the absence of partial agonism; cited from earlier work

CC(=O)Nc1nc2c(Oc3cc(-c4ccc(C(F)(F)F)cc4)ncn3)cccc2s1 [AMG 517]
subject's body temperature rose to [1]: 40.2 °C

FC(F)(F)c1ccc(-c2cc(Nc3ccc4ncsc4c3)ncn2)c(NCC2CCCCC2)c1 [AMG7905]
effect on body temperature [2]: cause hypothermia
